According to ChEMBL document CHEMBL2321853, “Novel acylethanolamide derivatives that modulate body weight through enhancement of hypothalamic pro-opiomelanocortin (POMC) and/or decreased neuropeptide Y (NPY)” (J Med Chem, 2013):
Active and inactive are the calls of the source. The calls are words filed in the database; no cut-off is given here.

Assays:
[1] = system: Mus musculus; assay: Hepatotoxicity in Sabra mouse assessed as centrilobular apoptotic changes at 1 mg/kg, ip administered on day 8, 9, 10, 11, 14, 18, 24 and 32 by hematoxylin and eosin staining-based histopathological analysis; assay type: toxicity, organism-based; set-up: dose 1 mg/kg, route intraperitoneal; details: in vivo
[2] = system: Mus musculus; assay: Antiobesity activity in Sabra mouse assessed as reduction in body weight at 1 mg/kg, ip administered on day 0, 10, 11, 12, 24, 29 measured on day 24 relative to control; assay type: functional; set-up: scale not given: the % may be the effect or the level left; details: route intraperitoneal
[3] = system: Mus musculus; assay: Enhancement of cognitive function in Sabra mouse at 10 mg/kg, ip administered on day 6 to 10 by eight-arm maze test relative to control; assay type: functional, organism-based; set-up: dose 10 mg/kg
[4] = system: Mus musculus; assay: Antiobesity activity in Sabra mouse assessed as change in body weight at 1 mg/kg, ip administered on day 8, 9, 10, 11, 14, 18, 24 and 32 measured on day 4 relative to control; assay type: functional; details: route intraperitoneal
[5] = system: Mus musculus; assay: Antiobesity activity in Sabra mouse assessed as change in body weight at 1 mg/kg, ip administered on day 8, 9, 10, 11, 14, 18, 24 and 32 measured on day 21 relative to control; assay type: functional; details: route intraperitoneal
[6] = system: Mus musculus; assay: Antiobesity activity in Sabra mouse assessed as change in body weight at 1 mg/kg, ip administered on day 8, 9, 10, 11, 14, 18, 24 and 32 measured on day 35 relative to control; assay type: functional; details: route intraperitoneal
[7] = system: Mus musculus; assay: Antiobesity activity in Sabra mouse assessed as change in body weight at 1 mg/kg, ip administered on day 8, 12 and 43 measured on day 43 relative to control; assay type: functional; details: route intraperitoneal
[8] = system: Mus musculus; assay: Antiobesity activity in high fat diet fed C57BL/6 mouse assessed as reduction food consumption at 1 mg/kg, ip administered on day 3, 6, 8, 9, 10 measured after week 1 relative to control; assay type: functional; set-up: scale not given: the % may be the effect or the level left; details: route intraperitoneal
[9] = system: Mus musculus; assay: Antiobesity activity in C57BL/6 mouse assessed as weight loss at 5 mg/kg, ip administered on day 1, 4, 5, 7, 17, 15, 19 measured on day 15 relative to control; assay type: functional; details: route intraperitoneal
[10] = system: Mus musculus; assay: Enhancement of cognitive function in Sabra mouse at 1 mg/kg, ip measured on day 8 to 12 by eight-arm maze test; assay type: functional, organism-based; set-up: dose 1 mg/kg
[11] = target: Transient receptor potential cation channel subfamily V member 1 (Rattus norvegicus) (UniProt O35433); assay: Displacement of [3H]resiniferatoxin from TRPV1 receptor in Wistar rat spinal cord at 10 uM relative to control
[12] = system: Mus musculus; assay: Antiobesity activity in C57BL/6 mouse assessed as weight loss at 5 mg/kg, ip administered on day 1, 4, 5, 7, 17, 15, 19 measured on day 8 relative to control; assay type: functional; details: route intraperitoneal
[13] = system: Mus musculus; assay: Antiobesity activity in Sabra mouse assessed as reduction in body weight at 10 mg/kg, ip administered on day 6 to 10 measured on day 16 relative to control; assay type: functional; set-up: scale not given: the % may be the effect or the level left; details: route intraperitoneal
[14] = system: Hypothalamus; assay: Decrease in 2-AG level in Sabra mouse hypothalamus at 8 mg/kg, ip for 39 days (reference value: 100 +/- 7 %); assay type: functional; set-up: scale not given: the % may be the effect or the level left; details: route intraperitoneal
[15] = system: Mus musculus; assay: Antiobesity activity in Sabra mouse assessed as change in body weight at 1 mg/kg, ip administered on day 8, 12 and 43 measured on day 12 relative to control; assay type: functional; details: route intraperitoneal
[16] = system: Hypothalamus; assay: Effect on POMC gene expression in Sabra mouse hypothalamus assessed as increase in mRNA level at 1 mg/kg, ip administered on day 6 to 10 measured on day 16 by RT-PCR analysis relative to control; assay type: functional; details: route intraperitoneal
[17] = system: Mus musculus; assay: Antiobesity activity in Sabra mouse assessed as reduction in body weight at 1 mg/kg, ip administered on day 0, 10, 11, 12, 24, 29 measured on day 36 relative to control; assay type: functional; set-up: scale not given: the % may be the effect or the level left; details: route intraperitoneal
[18] = target: Cannabinoid receptor 2 (Homo sapiens) (UniProt P34972); assay: Displacement of [3H]WIN-55,212-2 from human recombinant CB2 receptor expressed in CHO-K1 cells at 10 uM relative to control; assay type: cell-based
[19] = system: Mus musculus; assay: Antiobesity activity in C57BL/6 mouse assessed as weight loss at 5 mg/kg, ip administered on day 1, 4, 5, 7, 17, 15, 19 measured on day 12 relative to control; assay type: functional; details: route intraperitoneal
[20] = system: Mus musculus; assay: Toxicity in Sabra mouse assessed as morphological changes in neuronal cells at 1 mg/kg, ip administered on day 8, 9, 10, 11, 14, 18, 24 and 32 by hematoxylin and eosin staining-based histopathological analysis; assay type: organism-based; set-up: dose 1 mg/kg, route intraperitoneal; details: in vivo
[21] = target: T1, Peroxisome proliferator-activated receptor alpha (Homo sapiens) (UniProt Q07869); assay: Binding affinity to human recombinant PPARalpha expressed in Escherichia coli at 10 uM for 16 hrs by spectrofluorimetric analysis relative to control
T1 sequence (whole entry): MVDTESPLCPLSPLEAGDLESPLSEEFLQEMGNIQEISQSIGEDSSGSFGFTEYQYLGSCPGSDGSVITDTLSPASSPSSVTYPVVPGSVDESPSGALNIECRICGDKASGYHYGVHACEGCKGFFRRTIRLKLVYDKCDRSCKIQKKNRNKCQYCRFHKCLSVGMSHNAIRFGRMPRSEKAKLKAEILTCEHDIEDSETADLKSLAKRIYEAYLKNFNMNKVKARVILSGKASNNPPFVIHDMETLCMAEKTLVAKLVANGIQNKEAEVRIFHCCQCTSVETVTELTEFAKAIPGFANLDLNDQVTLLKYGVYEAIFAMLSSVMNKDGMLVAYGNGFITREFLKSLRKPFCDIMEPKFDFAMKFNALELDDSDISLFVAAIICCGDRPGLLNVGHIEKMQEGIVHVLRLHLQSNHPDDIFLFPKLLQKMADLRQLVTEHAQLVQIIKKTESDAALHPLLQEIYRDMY

[22] = system: Mus musculus; assay: Antiobesity activity in Sabra mouse assessed as reduction in body weight at 1 mg/kg, ip administered on day 0, 10, 11, 12, 24, 29 measured on day 12 relative to control; assay type: functional; set-up: scale not given: the % may be the effect or the level left; details: route intraperitoneal
[23] = system: Hypothalamus; assay: Effect on POMC gene expression in Sabra mouse hypothalamus assessed as change in mRNA level at 1 mg/kg, ip administered on day 8, 9, 10, 11, 14, 18, 24 and 32 by RT-PCR analysis relative to GAPDH; assay type: functional; details: route intraperitoneal
[24] = system: Mus musculus; assay: Antiobesity activity in C57BL/6 mouse assessed as weight loss at 5 mg/kg, ip administered on day 1, 4, 5, 7, 17, 15, 19 measured on day 17 relative to control; assay type: functional; details: route intraperitoneal
[25] = system: Hypothalamus; assay: Effect on CAMKK2 gene expression in Sabra mouse hypothalamus assessed as change in mRNA level at 1 mg/kg, ip administered on day 8, 9, 10, 11, 14, 18, 24 and 32 by RT-PCR analysis relative to GAPDH; assay type: functional; details: route intraperitoneal
[26] = system: Mus musculus; assay: Antiobesity activity in Sabra mouse assessed as change in food consumption at 1 mg/kg, ip administered on day 8, 9, 10, 11, 14, 18, 24 and 32 measured after 5 weeks relative to control; assay type: functional; details: route intraperitoneal
[27] = system: Mus musculus; assay: Antiobesity activity in C57BL/6 mouse assessed as change in cholesterol level at 5 mg/kg, ip measured on day 36 (reference value: 86.58 mg/dL); assay type: functional; details: route intraperitoneal

Chain of Cannabinoid receptor 2 (Homo sapiens) (P34972 whole entry): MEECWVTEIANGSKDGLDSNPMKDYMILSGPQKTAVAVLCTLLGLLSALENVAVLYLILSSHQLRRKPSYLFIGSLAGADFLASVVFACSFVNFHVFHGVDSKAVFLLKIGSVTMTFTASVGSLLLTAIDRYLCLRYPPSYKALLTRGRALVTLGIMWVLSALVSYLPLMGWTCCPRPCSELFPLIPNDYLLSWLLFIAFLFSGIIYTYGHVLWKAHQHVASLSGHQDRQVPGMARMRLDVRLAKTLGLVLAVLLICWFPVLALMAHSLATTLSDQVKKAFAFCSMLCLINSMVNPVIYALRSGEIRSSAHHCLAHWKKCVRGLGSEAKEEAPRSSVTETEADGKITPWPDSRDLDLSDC
Chain of Transient receptor potential cation channel subfamily V member 1 (Rattus norvegicus) (O35433 whole entry): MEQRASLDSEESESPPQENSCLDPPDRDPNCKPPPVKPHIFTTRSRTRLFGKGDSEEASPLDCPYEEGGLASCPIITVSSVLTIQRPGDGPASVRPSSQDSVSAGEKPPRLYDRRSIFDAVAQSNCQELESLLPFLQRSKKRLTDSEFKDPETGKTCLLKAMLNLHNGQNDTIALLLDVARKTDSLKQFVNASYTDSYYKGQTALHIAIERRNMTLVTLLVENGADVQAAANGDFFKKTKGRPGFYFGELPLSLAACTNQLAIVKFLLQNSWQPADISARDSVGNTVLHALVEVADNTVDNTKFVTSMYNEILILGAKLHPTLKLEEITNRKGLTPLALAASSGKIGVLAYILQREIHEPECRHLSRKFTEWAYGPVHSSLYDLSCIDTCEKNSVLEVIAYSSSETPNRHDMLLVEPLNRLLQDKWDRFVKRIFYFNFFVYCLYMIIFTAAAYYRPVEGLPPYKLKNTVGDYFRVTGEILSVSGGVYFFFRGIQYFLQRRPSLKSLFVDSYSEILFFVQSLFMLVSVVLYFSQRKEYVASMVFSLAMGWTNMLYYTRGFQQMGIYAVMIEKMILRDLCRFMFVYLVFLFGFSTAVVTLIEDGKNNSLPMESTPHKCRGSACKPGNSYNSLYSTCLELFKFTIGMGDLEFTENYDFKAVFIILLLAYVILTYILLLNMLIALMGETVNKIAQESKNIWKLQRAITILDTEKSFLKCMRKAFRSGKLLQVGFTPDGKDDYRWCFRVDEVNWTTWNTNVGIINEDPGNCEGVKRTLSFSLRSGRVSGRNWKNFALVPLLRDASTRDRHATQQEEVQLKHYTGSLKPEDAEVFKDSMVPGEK

With `CCCCCCCC/C=C\CCCCCCCC(=O)N[C@H](CO)C(C)C` the Activity [1] was “Non-toxic”, the Activity [2] was -4.24% and the Activity [3] was “inactive”. For the same compound, the Activity [4] was 0.5%, the Activity [5] was -2.4% and the Activity [6] was -6.2%. It also gave an Activity [7] of -7.5%, an Activity [8] of 22% and an Activity [9] of -4.7%. For the same compound, the Activity [10] was “Active”, the inhibition [11] was 1% and the Activity [12] was -4.6%. It also gave an Activity [13] of 6.4%, an Activity [14] of 44.5% and an Activity [15] of -2.2%. It also gave an Activity [16] of 50%, an Activity [17] of -5.49% and an inhibition [18] of 18%. For the same compound, the Activity [19] was -5.6%, the Activity [20] was “Non-toxic” and the Activity [21] was 2%. The Activity [22] was -1.79%, the Activity [23] was 36% and the Activity [24] was -3.6%. The Activity [25] was -18%, the Activity [26] was 85.9% and the Activity [27] was 83.01 mg/dL.
